Test results: patent publication US5614504A, “Method of making inosine monophosphate derivatives and immunopotentiating uses thereof” (The University of South Florida, priority 1995, dated 1997)

Key:
in vitro = in vitro ADME, Crotalus atrox; conditions: rattlesnake, pH 7.3; 0.02 units 5'-nucleotidase, 37° C., 10 minutes; four experiments; read-out: Hydrolysis (%)
Description: (§1) Nucleotide samples (40-60 nmoles) were incubated at 37° C. for 10 minutes with 0.02 units 5'-nucleotidase in a total volume of 100 μl containing […] HEPES, pH 7.3 and […] MgCl2. […] Phosphate was determined by the absorbance of 820 nm. Blanks consisting of nucleotide but no enzyme were tested in parallel to correct for non-enzymatic hydrolysis.

[1] = tested on: spleen plaque antibody forming cells (PFC); experiment: In vivo stimulation of PFC response to SRBC; parameters: species or system mice; conditions: for effect on PFC response: 50 mg/kg of body weight ip with SRBC, PFC five days later; for dose of optimal stimulation of PFC response: intraperitoneal
Description: Five days later, suspensions of spleen cells were prepared and their viability was determined by trypan blue exclusion test. Cells were suspended at 3×10^6 /ml. 0.2 ml of spleen cell suspension was mixed with 0.8 ml of 0.7% agarose and 0.2 ml of freshly washed SRBC (at 6×10^5 /ml). The mixture was immediately poured into the plate and allowed to solidify. After 60 minutes of incubation at 37° C. in a humid atmosphere of 5% CO2 in the air, the plate was flooded with 1 ml of guinea-pig complement diluted 1:5 with Hank's balanced saline. Hemolytic plaques were counted with an inverted scope using 4× magnification.
Spleen plaque antibody forming cells (PFC) were measured at the end of the five days.

[2] = tested on: human peripheral blood lymphocytes (HPBL); experiment: Response of normal HPBL to PHA (tritiated thymidine incorporation); format: cell-based; conditions: 0.1-100 μg/ml; FIG. 1
Description: (§2) In vitro: Both human peripheral blood lymphocytes (HPBL) and mouse spleen lymphocytes (MSL) were employed. […] For HPBL transformation, PHA and PWM were used at 0.5 μg/ml. For MSL transformation, Con A was used at 0.5 μg/ml, phytohemagglutinin (PHA, Murex Diagnostics, Atlanta, Ga.) at 0.5 μg/ml and lipopolysaccharide endotoxin (LPS, Sigma, St. Louis, Mo.) at 10 μg/ml.
(§3) They were cultured in microwell plates at 1.5×10^6 cells/ml of minimal essential media (MEM, Gibco Labs, Grand Island, N.Y.) with 5% fetal calf serum (FCS, Hyclone Labs, Logan, Utah) and tested for their proliferative response to mitogens as measured by incorporation of (^3 H) tritiated thymidine (New England Nuclear, Wilmington Del., […]; 2.5 μCi/ml) during a terminal pulse followed by liquid scintillation spectrometry.

[3] = tested on: 5'-nucleotidase (from Crotalus atrox venom); experiment: in vitro; format: in vitro ADME; conditions: in words
Description: as §1

[4] = tested on: mouse spleen lymphocytes (MSL); experiment: Mouse spleen lymphocyte proliferation to Con A; format: cell-based; conditions: 0.1, 1, 10, 100 μg/ml; Con A 0.5 μg/ml
Description: as §2, §3

influenza virus = format: in vivo, NMRI mice; conditions: Squalane alone
[5] = in man; cited from earlier work

| Compound | metabolised at 10 min (in vitro) [%] | effect on PFC response [1] | dose of optimal stimulation of PFC response [1] | relative activity on HPBL response to PHA [2] | resistance to hydrolysis by 5'-nucleotidase [3] | proliferative responses of MSL to Con A [4] | effect on survival after influenza challenge (influenza virus) | half-life [5] |
| --- | --- | --- | --- | --- | --- | --- | --- | --- |
| Nc1ncnc2c1ncn2[C@@H]1O[C@H](COP(=O)(O)O)[C@@H](O)[C@H]1O [Adenosine MP, adenosine-5'-monophosphate, reference compound] | 86 | – | – | – | – | – | – | – |
| N=C(N)NCCC[C@H](NP(=O)(O)OC[C@H]1O[C@@H](n2cnc3c(=O)[nH]cnc32)[C@H](O)[C@@H]1O)C(=O)O [Arg-IMP, Arginine-5'-inosine-monophosphate] | 12 | significantly stimulated | 50 mg/kg of body weight | more active | moderate | stimulated the proliferative responses | – | – |
| CCOP(=O)(O)OC[C@H]1O[C@@H](n2cnc3c(=O)[nH]cnc32)[C@H](O)[C@@H]1O [E-IMP, Ethyl-5'-inosine-monophosphate] | 2.9 | – | – | more active | extremely resistant | stimulated the proliferative responses | – | – |
| CC(CCCC(C)(C)O)NP(=O)(O)OC[C@H]1O[C@@H](n2cnc3c(=O)[nH]cnc32)[C@H](O)[C@@H]1O (stereo partly shown) [Ha-IMP, (Heptamin-1-ol)-5'-inosine-monophosphate] | 76 | significantly stimulated | 50 mg/kg of body weight | low | mild | stimulated the proliferative responses | – | – |
| CC(C)CCCC(C)CCCC(C)CCCCC(C)CCCC(C)CCCC(C)C (stereo not shown) [Squalane, reference compound] | – | – | – | – | – | – | no effect | – |
| isoprinosine | – | – | – | – | – | – | – | less than four |
